Structures can show the parent of a compound that is named as a salt. Where two headings read alike, the source gives them in different places.
Tested on: HIV-1 NL4-3 strain
Test: Evaluation of antiviral activity: acute infection system of MT-4 cell with HIV-1 NL4-3 strain
Type: cell-based
[1] = Human immunodeficiency virus 1, NL43, MT4, 120 h, read-out: antiviral activity (EC50), MT-4 cells infected with HIV-1 NL4-3 strain (MOI 0.05), cultured 5 days, Cell Titer-Glo
[2] = Human immunodeficiency virus 1, NL43, MT4, 120 h, MT-4 cells infected with HIV-1 NL4-3 strain (MOI 0.05), cultured 5 days, Cell Titer-Glo, read-out: antiviral activity (EC50)

SMILES: CCN1C[C@@]2(C[C@@H]2COC)n2cc(C(=O)NCc3cccc(C(F)(F)F)c3F)c(=O)c(O)c2C1=O [Example T27, (1S,2S)-2′-ethyl-N-(2-fluoro-3-(trifluoromethyl)benzyl)-9′-hydroxy-2-(methoxymethyl)-1′,8′-dioxo-1′,2′,3′,8′-tetrahydrospiro[cyclopropane-1,4′-pyrido[1,2-a]pyrazine]-7′-carboxamide]
- EC50 (MT-4 cells infected with HIV-1 NL4-3 strain (MOI 0.05), cultured 5 days, Cell Titer-Glo, read-out: antiviral activity (EC50)): 97 nM

SMILES: CC(C)N1C[C@@]2(C[C@H]2CO)n2cc(C(=O)NCc3cccc(Cl)c3F)c(=O)c(O)c2C1=O [Example T28, (1S,2R)-N-(3-chloro-2-fluorobenzyl)-9′-hydroxy-2-(hydroxymethyl)-2′-isopropyl-1′,8′-dioxo-1′,2′,3′,8′-tetrahydrospiro[cyclopropane-1,4′-pyrido[1,2-a]pyrazine]-7′-carboxamide hydrochloride]
- EC50 [1]: 5.2 nM

SMILES: CCN1C[C@@]2(C[C@H]2CO)n2cc(C(=O)NCc3cccc(Cl)c3F)c(=O)c(O)c2C1=O [Example T29, (1S,2R)-N-(3-chloro-2-fluorobenzyl)-2′-ethyl-9′-hydroxy-2-(hydroxymethyl)-1′,8′-dioxo-1′,2′,3′,8′-tetrahydrospiro[cyclopropane-1,4′-pyrido[1,2-a]pyrazine]-7′-carboxamide hydrochloride]
- EC50 [1]: 4.8 nM

SMILES: CCN1C[C@@]2(C[C@H]2COC)n2cc(C(=O)NCc3cccc(Cl)c3F)c(=O)c(O)c2C1=O [Example T30, (1S,2R)-N-(3-chloro-2-fluorobenzyl)-2′-ethyl-9′-hydroxy-2-(methoxymethyl)-1′,8′-dioxo-1′,2′,3′,8′-tetrahydrospiro[cyclopropane-1,4′-pyrido[1,2-a]pyrazine]-7′-carboxamide]
- EC50 [2]: 4.4 nM

SMILES: CCOC[C@H]1C[C@@]12CN(C)C(=O)c1c(O)c(=O)c(C(=O)NCc3ccc(OC)c(Cl)c3F)cn12 [Example T31, (1S,2S)-N-(3-chloro-2-fluoro-4-methoxybenzyl)-2-(ethoxymethyl)-9′-hydroxy-2′-methyl-1′,8′-dioxo-1′,2′,3′,8′-tetrahydrospiro[cyclopropane-1,4′-pyrido[1,2-a]pyrazine]-7′-carboxamide]
- EC50 [2]: 12 nM

SMILES: CN(C)C(=O)[C@H]1C[C@@]12CN(C1CC1)C(=O)c1c(O)c(=O)c(C(=O)NCc3cccc(Cl)c3F)cn12 [Example T32, (1S,2S)-N^7′-(3-chloro-2-fluorobenzyl)-2′-cyclopropyl-9′-hydroxy-N^2,N^2-dimethyl-1′,8′-dioxo-1′,2′,3′,8′-tetrahydrospiro[cyclopropane-1,4′-pyrido[1,2-a]pyrazine]-2,7′-dicarboxamide]
- EC50 [2]: 3.3 nM

SMILES: CN(C)C(=O)[C@@H]1C[C@]12CN(C1CC1)C(=O)c1c(O)c(=O)c(C(=O)NCc3cccc(Cl)c3F)cn12 [Example T33, (1R,2R)-N^7′-(3-chloro-2-fluorobenzyl)-2′-cyclopropyl-9′-hydroxy-N^2,N^2-dimethyl-1′,8′-dioxo-1′,2′,3′,8′-tetrahydrospiro[cyclopropane-1,4′-pyrido[1,2-a]pyrazine]-2,7′-dicarboxamide]
- EC50 [2]: 3.3 nM

SMILES: COC[C@H]1C[C@@]12CN(C)C(=O)c1c(O)c(=O)c(C(=O)NCc3cc(N4CCCC4=O)cc(Cl)c3F)cn12 [Example T34, (1S,2S)-N-(3-chloro-2-fluoro-5-(2-oxopyrrolidin-1-yl)benzyl)-9′-hydroxy-2-(methoxymethyl)-2′-methyl-1′,8′-dioxo-1′,2′,3′,8′-tetrahydrospiro[cyclopropane-1,4′-pyrido[1,2-a]pyrazine]-7′-carboxamide]
- EC50 [2]: 23 nM

SMILES: CCOC[C@@H]1C[C@]12CN(C)C(=O)c1c(O)c(=O)c(C(=O)NCc3ccc(OC)c(Cl)c3F)cn12 [Example T35, (1R,2R)-N-(3-chloro-2-fluoro-4-methoxybenzyl)-2-(ethoxymethyl)-9′-hydroxy-2′-methyl-1′,8′-dioxo-1′,2′,3′,8′-tetrahydrospiro[cyclopropane-1,4′-pyrido[1,2-a]pyrazine]-7′-carboxamide hydrochloride]
- EC50 [1]: 17 nM

SMILES: COC[C@@H]1C[C@]12CN(C)C(=O)c1c(O)c(=O)c(C(=O)NCc3ccc(OC)c(Cl)c3F)cn12 [Example T36, (1R,2R)-N-(3-chloro-2-fluoro-4-methoxybenzyl)-9′-hydroxy-2-(methoxymethyl)-2′-methyl-1′,8′-dioxo-1′,2′,3′,8′-tetrahydrospiro[cyclopropane-1,4′-pyrido[1,2-a]pyrazine]-7′-carboxamide hydrochloride]
- EC50 [1]: 10 nM

SMILES: CCOc1ccc(CNC(=O)c2cn3c(c(O)c2=O)C(=O)N(C)C[C@@]32C[C@@H]2COC)c(F)c1Cl [Example T37, (1S,2S)-N-(3-chloro-4-ethoxy-2-fluorobenzyl)-9′-hydroxy-2-(methoxymethyl)-2′-methyl-1′,8′-dioxo-1′,2′,3′,8′-tetrahydrospiro[cyclopropane-1,4′-pyrido[1,2-a]pyrazine]-7′-carboxamide hydrochloride]
- EC50 [1]: 93 nM

SMILES: CCOc1ccc(CNC(=O)c2cn3c(c(O)c2=O)C(=O)N(C)C[C@]32C[C@H]2COC)c(F)c1Cl [Example T38, (1R,2R)-N-(3-chloro-4-ethoxy-2-fluorobenzyl)-9′-hydroxy-2-(methoxymethyl)-2′-methyl-1′,8′-dioxo-1′,2′,3′,8′-tetrahydrospiro[cyclopropane-1,4′-pyrido[1,2-a]pyrazine]-7′-carboxamide hydrochloride]
- EC50 [1]: 77 nM

SMILES: CCN1C(=O)c2c(O)c(=O)c(C(=O)NCc3ccc(F)cc3F)cn2C[C@@]12C[C@@H]2CO [Example T39, (1S,2S)-N-(2,4-difluorobenzyl)-2′-ethyl-9′-hydroxy-2-(hydroxymethyl)-1′,8′-dioxo-1′,2′,4′,8′-tetrahydrospiro[cyclopropane-1,3′-pyrido[1,2-a]pyrazine]-7′-carboxamide hydrochloride]
- EC50 [1]: 2.8 nM

SMILES: CCN1C(=O)c2c(O)c(=O)c(C(=O)NCc3ccc(F)cc3F)cn2C[C@@]12C[C@@H]2COC [Example T40, (1S,2S)-N-(2,4-difluorobenzyl)-2′-ethyl-9′-hydroxy-2-(methoxymethyl)-1′,8′-dioxo-1′,2′,4′,8′-tetrahydrospiro[cylcopropane-1,3′-pyrido[1,2-a]pyrazine]-7′-carboxamide hydrochloride]
- EC50 [2]: 1.9 nM

SMILES: COC[C@H]1C[C@@]12Cn1cc(C(=O)NCc3ccc(F)cc3F)c(=O)c(O)c1C(=O)N2C(C)C [Example T41, (1S,2S)-N-(2,4-difluorobenzyl)-9′-hydroxy-2′-isopropyl-2-(methoxymethyl)-1′,8′-dioxo-1′,2′,4′,8′-tetrahydrospiro[cyclopropane-1,3′-pyrido[1,2-a]pyrazine]-7′-carboxamide]
- EC50 [2]: 2.2 nM

SMILES: CC(C)N1C(=O)c2c(O)c(=O)c(C(=O)NCc3ccc(F)cc3F)cn2C[C@@]12C[C@@H]2CO [Example T42, (1S,2S)-N-(2,4-difluorobenzyl)-9′-hydroxy-2-(hydroxymethyl)-2′-isopropyl-1′,8′-dioxo-1′,2′,4′,8′-tetrahydrospiro[cyclopropane-1,3′-pyrido[1,2-a]pyrazine]-7′-carboxamide]
- EC50 [2]: 3.7 nM

SMILES: CCOC[C@H]1C[C@@]12Cn1cc(C(=O)NCc3ccc(F)cc3F)c(=O)c(O)c1C(=O)N2C(C)C [Example T43, (1S,2S)-N-(2,4-difluorobenzyl)-2-(ethoxymethyl)-9′-hydroxy-2′-isopropyl-1′,8′-dioxo-1′,2′,4′,8′-tetrahydrospiro[cyclopropane-1,3′-pyrido[1,2-a]pyrazine]-7′-carboxamide]
- EC50 [2]: 5.3 nM

SMILES: CCN1C(=O)c2c(O)c(=O)c(C(=O)NCc3cccc(Cl)c3F)cn2C[C@@]12C[C@@H]2CO [Example T44, (1S,2S)-N-(3-chloro-2-fluorobenzyl)-2′-ethyl-9′-hydroxy-2-(hydroxymethyl)-1′,8′-dioxo-1′,2′,4′,8′-tetrahydrospiro[cyclopropane-1,3′-pyrido[1,2-a]pyrazine]-7′-carboxamide hydrochloride]
- EC50 [1]: 5.1 nM

SMILES: CCOC[C@H]1C[C@@]12Cn1cc(C(=O)NCc3cccc(Cl)c3F)c(=O)c(O)c1C(=O)N2CC [Example T45, (1S,2S)-N-(3-chloro-2-fluorobenzyl)-2-(ethoxymethyl)-2′-ethyl-9′-hydroxy-1′,8′-dioxo-1′,2′,4′,8′-tetrahydrospiro[cyclopropane-1,3′-pyrido[1,2-a]pyrazine]-7′-carboxamide]
- EC50 [2]: 4.4 nM

SMILES: CCN1C(=O)c2c(O)c(=O)c(C(=O)NCc3cccc(Cl)c3F)cn2C[C@]12C[C@H]2CO [Example T46, (1R,2R)-N-(3-chloro-2-fluorobenzyl)-2′-ethyl-9′-hydroxy-2-(hydroxymethyl)-1′,8′-dioxo-1′,2′,4′,8′-tetrahydrospiro[cyclopropane-1,3′-pyrido[1,2-a]pyrazine]-7′-carboxamide hydrochloride]
- EC50 [1]: 3.4 nM

SMILES: CC(C)N1C(=O)c2c(O)c(=O)c(C(=O)NCc3cccc(Cl)c3F)cn2C[C@@]12C[C@@H]2CO [Example T47, (1S,2S)-N-(3-chloro-2-fluorobenzyl)-9′-hydroxy-2-(hydroxymethyl)-2′-isopropyl-1′,8′-dioxo-1′,2′,4′,8′-tetrahydrospiro[cyclopropane-1,3′-pyrido[1,2-a]pyrazine]-7′-carboxamide]
- EC50 [2]: 4 nM

SMILES: CCN1C(=O)c2c(O)c(=O)c(C(=O)NCc3ccc(OC)c(Cl)c3F)cn2C[C@@]12C[C@@H]2CO [Example T48, (1S,2S)-N-(3-chloro-2-fluoro-4-methoxybenzyl)-2′-ethyl-9′-hydroxy-2-(hydroxymethyl)-1′,8′-dioxo-1′,2′,4′,8′-tetrahydrospiro[cyclopropane-1,3′-pyrido[1,2-a]pyrazine]-7′-carboxamide hydrochloride]
- EC50 [1]: 18 nM

SMILES: CN1C(=O)c2c(O)c(=O)c(C(=O)NCc3cccc(Cl)c3F)cn2C[C@]12C[C@H]2CO [Example T49, (1R,2R)-N-(3-chloro-2-fluorobenzyl)-9′-hydroxy-2-(hydroxymethyl)-2′-methyl-1′,8′-dioxo-1′,2′,4′,8′-tetrahydrospiro[cyclopropane-1,3′-pyrido[1,2-a]pyrazine]-7′-carboxamide]
- EC50 [2]: 7.2 nM

Source: patent US10087178B2, “Substituted spiropyrido[1,2-a]pyrazine derivative and medicinal use thereof as HIV integrase inhibitor” (priority 2012, dated 2018)
